The text below walks through data of PubChem BioAssay (NCI).

What all share (assay): NCI anticancer screen, dose series, 48 h
The subject of assay [1] is DU-145 prostate.
Assay [2] concerns U251 CNS.
Assay [3] deals with NCI-H522 lung.
The subject of assay [4] is CCRF-CEM leukemia.
Assay [5] has as its system ACHN renal.
Assay [6] deals with MDA-MB-231 breast.
Assay [7] has as its system NCI/ADR-RES ovarian.
The test system of assay [8] is HCT-15 colon.
For assay [9], the system named is SF-295 CNS.
Assay [10] relates to HOP-92 NSCLC.

The structures appear in SMILES notation. Values joined by “and” are separate entries in the source; they are usually repeats but may differ in a detail not shown here. Equal entries are not always repeated.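 Tested at 5 concentrations; 48 h exposure; 96-well plates; endpoints linearly interpolated, else capped at highest concentration. The concentration for 50% growth inhibition is given as GI50. The concentration for full growth arrest is given as TGI.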 Where a SMILES comes first, the peptide text is derived from it. Bridges are numbered along the chain shown (N, C = ends). [ ]: non-standard residue; d: D form. aThr = C[C@H](O)[C@H](N)C(=O)O

Regarding `COC12C(COC(=O)NCCO)C3=C(C(=O)C(C)=C(N)C3=O)N1CC1NC12` (centres undefined), the TGI in [1] is 236 µM; in assay [3] it was 33.5 µM and 99.6 µM; in assay [4], more than 264 µM; in assay [5] it was 142 µM; in [6], more than 264 µM; in assay [7], more than 264 µM. For the same molecule, the figures for the TGI in assay [8], in [9] and in assay [10] were more than 264 µM, more than 264 µM and 222 µM, respectively. The GI50 was 45.4 µM in assay [2]; 36.1 µM in assay [3]; 13.3 µM in assay [5]; 24.3 µM in assay [9]; 76.3 µM in [10].

Turning to `CCC(c1ccccc1)c1noc(CCN(CC)CC)n1` (centres undefined), the GI50 in assay [1] is 22.7 µM; in assay [2] it was 29.5 µM; in [3], 2.98 µM; in assay [4], 28.5 µM; in assay [5], 16.1 µM; in assay [6] it was 26.4 µM. For the same molecule, the GI50 in assay [7] was 39.1 µM; in [8], 19.2 µM; in assay [9] it was more than 56.9 µM; in assay [10], 7.99 µM. Further, the TGI in assay [1] was more than 64.3 µM; in assay [2], more than 100 µM; in assay [3] it was 9.09 µM; in assay [4], more than 86.3 µM; in assay [5] it was 31.3 µM; in assay [6] it was more than 91.2 µM. Further, the TGI in assay [7] is more than 100 µM; in assay [8], more than 62.3 µM; in assay [9], more than 100 µM; in [10], 49.6 µM.

As for `C=CCN(CC=C)C(=O)c1cc(C)nc2c1c(=O)n(-c1ccccc1)c(=O)n2CCCN1CCN(c2ccccc2OC)CC1`, the GI50 in assay [1], in [2], in [3], in assay [4], in [5] and in assay [6] was more than 50 µM each time. In addition, the GI50 in assay [7] is more than 50 µM; in [8] it was more than 50 µM; in [9], more than 50 µM; in assay [10], 4.57 µM. Besides, the TGI in assay [1], in assay [2], in [3], in assay [4], in [5] and in assay [6] was more than 50 µM each time. Further, the TGI in assay [7], in assay [8], in assay [9] and in assay [10] was more than 50 µM each time.

For the molecule `O=C(c1cccs1)c1c(C(F)(F)F)n([O-])c2cc(Cl)c(Cl)cc2[n+]1=O`, the GI50 in assay [1] is 0.872 µM; in assay [2] it was 0.269 µM; in assay [3], 0.55 µM; in assay [4] it was less than 0.0387 µM; in assay [5] it was 0.423 µM; in [6] it was 0.647 µM. For the same molecule, the GI50 in [7] was 1.05 µM; in assay [8], 0.286 µM; in assay [9] it was 0.51 µM; in assay [10] it was 1.41 µM. Besides, the TGI amounted to 2.68 µM in assay [1]; 1.66 µM in [2]; 2.2 µM in assay [3]; 0.0617 µM in [4]; 0.853 µM in [5]; 2.07 µM in [6]. The TGI in [7] was found to be 2.55 µM; in assay [8], 0.808 µM; in assay [9] it was 1.32 µM; in assay [10], 2.85 µM.

Regarding `C=C(CN1CCc2[nH]c3ccc(F)cc3c2C1)c1ccc(C(=O)Nc2ccccc2N)cc1`, the GI50 in assay [1] was 1.66 µM; in [2], 2.91 µM; in assay [3], 0.316 µM; in assay [4], 2.52 µM; in assay [5], 3.33 µM; in [6], 2.82 µM. Further, the GI50 in assay [7] was 0.621 µM; in assay [8], 3.17 µM; in assay [9] it was 3.31 µM; in assay [10] it was 10.7 µM. Moreover, the TGI amounted to 3.94 µM in assay [1]; 11.2 µM in assay [2]; 1.35 µM in [3]; 11.9 µM in [4]; 11.4 µM in assay [5]; 11.3 µM in assay [6]. Besides, the TGI in assay [7] turned out to be 11.3 µM; in assay [8], 12.6 µM; in assay [9] it was 11.8 µM; in assay [10], 36.7 µM.

As for `CC(C)C[C@@H]1NC(=O)[C@@H]2CCCN2C(=O)[C@@H]2CCCN2C(=O)[C@H](CC(C)C)NC(=O)[C@H](CO)NC(=O)[C@H](CCCCN)NC(=O)[C@H]([C@H](C)O)NC(=O)[C@@H]2CSSC[C@@H](NC1=O)C(=O)N[C@@H](Cc1ccccc1)C(=O)N1CCC[C@H]1C(=O)N[C@@H](CC(=O)O)C(=O)NCC(=O)N[C@@H](CCCN=C(N)N)C(=O)N2` (cyclo(C[aThr]KSLPPL[dC]FPDGR); disulfide 1-9), the GI50 in assay [1], in [2], in assay [3], in assay [4], in assay [5] and in assay [6] was more than 50 µM in each case. The GI50 in assay [7], in [8], in assay [9] and in assay [10] was more than 50 µM throughout. Further, the TGI in assay [1], in assay [2], in [3], in [4], in assay [5] and in [6] was more than 50 µM throughout. In addition, the TGI in assay [7], in assay [8], in assay [9] and in assay [10] was more than 50 µM in each case.

As for `CCCCCCCCCCCCCCNC(=O)Nc1ccc(Cl)c(Cl)c1`, the GI50 in assay [1] is 3.59 µM; in [2], 3.15 µM; in assay [3] it was 1.66 µM; in [4], 2.5 µM; in [5] it was 3.17 µM; in assay [6] it was 2.56 µM. Besides, the GI50 is 3.02 µM in assay [7], 3.21 µM in assay [8], 2.6 µM in assay [9] and 2.75 µM in assay [10]. In addition, the TGI in [1] is more than 100 µM; in assay [2] it was more than 100 µM; in assay [3] it was 5.75 µM; in assay [4], 11.1 µM; in [5], more than 100 µM; in assay [6] it was 7.64 µM. The TGI in [7] was more than 28.4 µM; in assay [8], more than 100 µM; in [9], more than 24.8 µM; in [10], 8.65 µM.
